Assay results taken from patent US12310975B2, “Modulators of BCL6 proteolysis and associated methods of use” (Arvinas Operations, Inc., priority 2019, dated 2025).
pIC50: −log10 of the molar value.

Key:
BCL6 [1] = biological target: T1, BCL6 (Homo sapiens (Human), UniProt P41182); assay: Immunofluorescence high content imaging of BCL6 degradation in T47D cells; type: cell-based; settings: T47D
In short: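 T47D, 3 d compound exposure, 11-pt 3-fold series, top 0.1 or 1 μM final. Fix 4% PFA, Triton permeabilize, anti-BCL6 primary overnight 4 °C, Alexa-488 secondary. High-content imaging 10×, 4 fields/well, top-hat smoothing.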

BCL6 [2] = biological target: T1, BCL6; assay: BCL6 TR-FRET assay (BCL6-Avitag-Biotin / BCoR-Cy5 peptide); type: binding; settings: read-out: IC50
In short: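 TR-FRET displacement assay: biotinylated His-SUMO-BCL6-Avitag (2 nM) pre-incubated 30 min at room temperature with compound (12-point 3-fold titration), then BCoR-Cy5 peptide (100 nM) and Eu-streptavidin (2 nM) added. Buffer: 50 mM HEPES pH 7.5, 125 mM NaCl, 0.01% Triton X, glutathione or DTT, 0.03% BSA. Read after 2 h.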

Row | SMILES | Dmax (BCL6 [1]) [%] | pIC50 (BCL6 [2])
1 | CNC(=O)COc1cc2cc(Nc3nc(N4CCC(CN5CCC6(CC5)CCN(c5cccc7c5C(=O)N(C5CCC(=O)NC5=O)C7=O)C6)CC4)ncc3Cl)ccc2n(C(C)C)c1=O (centres unmarked) [compound 512, 2-{[6-({5-chloro-2-[4-({2-[2-(2,6-dioxopiperidin-3-yl)-1,3-dioxo-2,3-dihydro-1H-isoindol-4-yl]-2,8-diazaspiro[4.5]decan-8-yl}methyl)piperidin-1-yl]pyrimidin-4-yl}amino)-2-oxo-1-(propan-2-yl)-1,2-dihydroquinolin-3-yl]oxy}-N-methylacetamide] | 50 to 70 | > 8.00
2 | CNC(=O)COc1cc2cc(Nc3nc(N4CCC5(CC4)CCN(C4CCN(c6ccc7c(c6)C(=O)N(C6CCC(=O)NC6=O)C7=O)CC4)C5)ncc3Cl)ccc2n(C(C)C)c1=O (centres unmarked) [compound 514, 2-[(6-{[5-chloro-2-(2-{1-[2-(2,6-dioxopiperidin-3-yl)-1,3-dioxo-2,3-dihydro-1H-isoindol-5-yl]piperidin-4-yl}-2,8-diazaspiro[4.5]decan-8-yl)pyrimidin-4-yl]amino}-2-oxo-1-(propan-2-yl)-1,2-dihydroquinolin-3-yl)oxy]-N-methylacetamide] | < 50 | > 8.00
3 | CNC(=O)COc1cc2cc(Nc3nc(N4CCC(N5CCC6(CCN(c7ccc8c(c7)C(=O)N(C7CCC(=O)NC7=O)C8=O)C6)CC5)CC4)ncc3Cl)ccc2n(C(C)C)c1=O (centres unmarked) [compound 515, 2-[(6-{[5-chloro-2-(4-{2-[2-(2,6-dioxopiperidin-3-yl)-1,3-dioxo-2,3-dihydro-1H-isoindol-5-yl]-2,8-diazaspiro[4.5]decan-8-yl}piperidin-1-yl)pyrimidin-4-yl]amino}-2-oxo-1-(propan-2-yl)-1,2-dihydroquinolin-3-yl)oxy]-N-methylacetamide] | ≥ 70 | 7.30 to 8.00
4 | CNC(=O)COc1cc2cc(Nc3nc(N4CCN(CC5CC6(CCN(c7ccc8c(c7)C(=O)N(C7CCC(=O)NC7=O)C8=O)CC6)C5)CC4)ncc3Cl)ccc2n(C(C)C)c1=O (centres unmarked) [compound 516, 2-{[6-({5-chloro-2-[4-({7-[2-(2,6-dioxopiperidin-3-yl)-1,3-dioxo-2,3-dihydro-1H-isoindol-5-yl]-7-azaspiro[3.5]nonan-2-yl}methyl)piperazin-1-yl]pyrimidin-4-yl}amino)-2-oxo-1-(propan-2-yl)-1,2-dihydroquinolin-3-yl]oxy}-N-methylacetamide] | 50 to 70 | > 8.00
5 | CNC(=O)COc1cc2cc(Nc3nc(N4CCN(CC5CC6(CCN(c7cccc8c7C(=O)N(C7CCC(=O)NC7=O)C8=O)CC6)C5)CC4)ncc3Cl)ccc2n(C(C)C)c1=O (centres unmarked) [compound 517, 2-{[6-({5-chloro-2-[4-({7-[2-(2,6-dioxopiperidin-3-yl)-1,3-dioxo-2,3-dihydro-1H-isoindol-4-yl]-7-azaspiro[3.5]nonan-2-yl}methyl)piperazin-1-yl]pyrimidin-4-yl}amino)-2-oxo-1-(propan-2-yl)-1,2-dihydroquinolin-3-yl]oxy}-N-methylacetamide] | ≥ 70 | > 8.00
6 | CNC(=O)COc1cc2cc(Nc3nc(N4CCC(O[C@H]5C[C@H](N6CCN(c7cccc8c7C(=O)N(C7CCC(=O)NC7=O)C8=O)CC6)C5)CC4)ncc3Cl)ccc2n(C(C)C)c1=O (some centres unmarked) [compound 518, 2-({6-[(5-chloro-2-{4-[(1r,3r)-3-{4-[2-(2,6-dioxopiperidin-3-yl)-1,3-dioxo-2,3-dihydro-1H-isoindol-4-yl]piperazin-1-yl}cyclobutoxy]piperidin-1-yl}pyrimidin-4-yl)amino]-2-oxo-1-(propan-2-yl)-1,2-dihydroquinolin-3-yl}oxy)-N-methylacetamide] | ≥ 70 | 7.30 to 8.00
7 | CNC(=O)COc1cc2cc(Nc3nc(N4CCC(N5CCC6(CCN(c7ccc8c(c7)C(=O)N(C7CCC(=O)NC7=O)C8=O)CC6)C5)CC4)ncc3Cl)ccc2n(C(C)C)c1=O (centres unmarked) [compound 521, 2-[(6-{[5-chloro-2-(4-{8-[2-(2,6-dioxopiperidin-3-yl)-1,3-dioxo-2,3-dihydro-1H-isoindol-5-yl]-2,8-diazaspiro[4.5]decan-2-yl}piperidin-1-yl)pyrimidin-4-yl]amino}-2-oxo-1-(propan-2-yl)-1,2-dihydroquinolin-3-yl)oxy]-N-methylacetamide] | 50 to 70 | > 8.00
8 | CNC(=O)COc1cc2cc(Nc3nc(N4CCN(CC5CC6(C5)CN(c5ccc7c(c5)C(=O)N(C5CCC(=O)NC5=O)C7=O)C6)CC4)ncc3Cl)ccc2n(C(C)C)c1=O (centres unmarked) [compound 523, 2-{[6-({5-chloro-2-[4-({2-[2-(2,6-dioxopiperidin-3-yl)-1,3-dioxo-2,3-dihydro-1H-isoindol-5-yl]-2-azaspiro[3.3]heptan-6-yl}methyl)piperazin-1-yl]pyrimidin-4-yl}amino)-2-oxo-1-(propan-2-yl)-1,2-dihydroquinolin-3-yl]oxy}-N-methylacetamide] | 50 to 70 | > 8.00

Other lines, results leading:

Row | Dmax (BCL6 [1]) [%] | pIC50 (BCL6 [2]) | SMILES
9 | ≥ 70 | > 8.00 | CNC(=O)COc1cc2cc(Nc3nc(N4CC5(CCN(CC6CCN(c7cccc8c7C(=O)N(C7CCC(=O)NC7=O)C8=O)CC6)C5)C4)ncc3Cl)ccc2n(C(C)C)c1=O (centres unmarked) [compound 511, 2-{[6-({5-chloro-2-[6-({1-[2-(2,6-dioxopiperidin-3-yl)-1,3-dioxo-2,3-dihydro-1H-isoindol-4-yl]piperidin-4-yl}methyl)-2,6-diazaspiro[3.4]octan-2-yl]pyrimidin-4-yl}amino)-2-oxo-1-(propan-2-yl)-1,2-dihydroquinolin-3-yl]oxy}-N-methylacetamide]
10 | ≥ 70 | > 8.00 | CNC(=O)COc1cc2cc(Nc3nc(N4CCC5(CCN(CC6CCN(c7cccc8c7C(=O)N(C7CCC(=O)NC7=O)C8=O)CC6)CC5)C4)ncc3Cl)ccc2n(C(C)C)c1=O (centres unmarked) [compound 513, 2-{[6-({5-chloro-2-[8-({1-[2-(2,6-dioxopiperidin-3-yl)-1,3-dioxo-2,3-dihydro-1H-isoindol-4-yl]piperidin-4-yl}methyl)-2,8-diazaspiro[4.5]decan-2-yl]pyrimidin-4-yl}amino)-2-oxo-1-(propan-2-yl)-1,2-dihydroquinolin-3-yl]oxy}-N-methylacetamide]
11 | ≥ 70 | > 8.00 | CNC(=O)COc1cc2cc(Nc3nc(N4CCC5(CN(CC6CCN(c7cccc8c7C(=O)N(C7CCC(=O)NC7=O)C8=O)CC6)C5)C4)ncc3Cl)ccc2n(C(C)C)c1=O (centres unmarked) [compound 519, 2-{[6-({5-chloro-2-[2-({1-[2-(2,6-dioxopiperidin-3-yl)-1,3-dioxo-2,3-dihydro-1H-isoindol-4-yl]piperidin-4-yl}methyl)-2,6-diazaspiro[3.4]octan-6-yl]pyrimidin-4-yl}amino)-2-oxo-1-(propan-2-yl)-1,2-dihydroquinolin-3-yl]oxy}-N-methylacetamide]
12 | < 50 | > 8.00 | CNC(=O)COc1cc2cc(Nc3nc(N4CCC5(CC4)CCN(C4CCN(c6cccc7c6C(=O)N(C6CCC(=O)NC6=O)C7=O)CC4)C5)ncc3Cl)ccc2n(C(C)C)c1=O (centres unmarked) [compound 520, 2-[(6-{[5-chloro-2-(2-{1-[2-(2,6-dioxopiperidin-3-yl)-1,3-dioxo-2,3-dihydro-1H-isoindol-4-yl]piperidin-4-yl}-2,8-diazaspiro[4.5]decan-8-yl)pyrimidin-4-yl]amino}-2-oxo-1-(propan-2-yl)-1,2-dihydroquinolin-3-yl)oxy]-N-methylacetamide]
13 | 50 to 70 | > 8.00 | CNC(=O)COc1cc2cc(Nc3nc(N4CCN(CC5CN(C6CCN(c7cccc8c7C(=O)N(C7CCC(=O)NC7=O)C8=O)CC6)C5)CC4)ncc3Cl)ccc2n(C(C)C)c1=O (centres unmarked) [compound 524, 2-({6-[(5-chloro-2-{4-[(1-{1-[2-(2,6-dioxopiperidin-3-yl)-1,3-dioxo-2,3-dihydro-1H-isoindol-4-yl]piperidin-4-yl}azetidin-3-yl)methyl]piperazin-1-yl}pyrimidin-4-yl)amino]-2-oxo-1-(propan-2-yl)-1,2-dihydroquinolin-3-yl}oxy)-N-methylacetamide]
14 | 50 to 70 | > 8.00 | CNC(=O)COc1cc2cc(Nc3nc(N4CCC(OC5CN(C6CCN(c7cccc8c7C(=O)N(C7CCC(=O)NC7=O)C8=O)CC6)C5)CC4)ncc3Cl)ccc2n(C(C)C)c1=O (centres unmarked) [compound 525, 2-({6-[(5-chloro-2-{4-[(1-{1-[2-(2,6-dioxopiperidin-3-yl)-1,3-dioxo-2,3-dihydro-1H-isoindol-4-yl]piperidin-4-yl}azetidin-3-yl)oxy]piperidin-1-yl}pyrimidin-4-yl)amino]-2-oxo-1-(propan-2-yl)-1,2-dihydroquinolin-3-yl}oxy)-N-methylacetamide]
15 | 50 to 70 | > 8.00 | CNC(=O)COc1cc2cc(Nc3nc(N4CCC(OC5CN(C6CCN(c7ccc8c(c7)C(=O)N(C7CCC(=O)NC7=O)C8=O)CC6)C5)CC4)ncc3Cl)ccc2n(C(C)C)c1=O (centres unmarked) [compound 526, 2-({6-[(5-chloro-2-{4-[(1-{1-[2-(2,6-dioxopiperidin-3-yl)-1,3-dioxo-2,3-dihydro-1H-isoindol-5-yl]piperidin-4-yl}azetidin-3-yl)oxy]piperidin-1-yl}pyrimidin-4-yl)amino]-2-oxo-1-(propan-2-yl)-1,2-dihydroquinolin-3-yl}oxy)-N-methylacetamide]
16 | 50 to 70 | > 8.00 | CNC(=O)COc1cc2cc(Nc3nc(N4CCC(N5CCC6(CCN(c7cccc8c7C(=O)N(C7CCC(=O)NC7=O)C8=O)CC6)C5)CC4)ncc3Cl)ccc2n(C(C)C)c1=O (centres unmarked) [compound 527, 2-[(6-{[5-chloro-2-(4-{8-[2-(2,6-dioxopiperidin-3-yl)-1,3-dioxo-2,3-dihydro-1H-isoindol-4-yl]-2,8-diazaspiro[4.5]decan-2-yl}piperidin-1-yl)pyrimidin-4-yl]amino}-2-oxo-1-(propan-2-yl)-1,2-dihydroquinolin-3-yl)oxy]-N-methylacetamide]
